Our source for the IC50 values is US9580411B2, “Substituted sulfonamide compounds” (Hoffmann-La Roche Inc., priority 2012, dated 2017).

pIC50: −log10 of the molar value.

The target of this experiment is hTRPA1 (Homo sapiens (Human), UniProt O75762). Kind of experiment: Dose response calcium flux assay (FLIPR), ChanTest hTRPA1-CHO stably transfected cell line. It counts as cell-based. Particulars: CHO-K1 Tet-On human TRPA1 cells, cinnamaldehyde agonist (final 100 uM). On the procedure: IC50 Determinations of Exemplified Compounds Dose Response Assay: Chan Test hTRPA1-CHO Stably Transfected Cell Line
hTRPA1, sequence (O75762 whole entry): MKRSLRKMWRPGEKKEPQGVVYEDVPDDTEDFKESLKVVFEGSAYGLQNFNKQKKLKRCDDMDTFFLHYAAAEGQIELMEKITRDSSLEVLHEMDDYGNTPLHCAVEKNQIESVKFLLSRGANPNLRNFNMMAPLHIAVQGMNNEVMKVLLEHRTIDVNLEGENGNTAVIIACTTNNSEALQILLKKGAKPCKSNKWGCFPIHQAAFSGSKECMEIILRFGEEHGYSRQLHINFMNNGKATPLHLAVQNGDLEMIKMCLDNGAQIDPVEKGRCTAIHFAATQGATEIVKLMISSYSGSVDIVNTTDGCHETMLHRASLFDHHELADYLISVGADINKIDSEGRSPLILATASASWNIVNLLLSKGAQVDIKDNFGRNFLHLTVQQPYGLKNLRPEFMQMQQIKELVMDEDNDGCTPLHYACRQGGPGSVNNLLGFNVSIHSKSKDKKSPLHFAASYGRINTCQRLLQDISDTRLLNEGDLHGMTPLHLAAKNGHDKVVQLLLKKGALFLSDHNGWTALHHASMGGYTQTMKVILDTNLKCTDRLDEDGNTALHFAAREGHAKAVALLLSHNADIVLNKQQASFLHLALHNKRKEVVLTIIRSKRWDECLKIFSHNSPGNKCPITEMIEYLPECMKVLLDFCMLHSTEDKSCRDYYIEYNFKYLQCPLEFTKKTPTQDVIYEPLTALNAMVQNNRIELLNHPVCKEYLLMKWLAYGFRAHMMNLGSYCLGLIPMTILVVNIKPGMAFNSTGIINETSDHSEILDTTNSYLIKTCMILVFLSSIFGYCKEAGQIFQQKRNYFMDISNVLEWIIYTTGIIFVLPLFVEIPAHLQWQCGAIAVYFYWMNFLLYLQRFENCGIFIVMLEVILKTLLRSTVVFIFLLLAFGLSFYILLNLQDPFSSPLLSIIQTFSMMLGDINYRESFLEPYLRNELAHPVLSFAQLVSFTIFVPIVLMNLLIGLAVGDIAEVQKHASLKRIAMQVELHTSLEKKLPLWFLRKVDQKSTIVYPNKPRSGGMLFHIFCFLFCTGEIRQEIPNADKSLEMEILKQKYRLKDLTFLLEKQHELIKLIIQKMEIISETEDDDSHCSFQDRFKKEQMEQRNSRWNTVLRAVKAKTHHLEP
CHO-K1 Tet-On_HOMSA_TRPA1_Clone_20
Chinese Hamster Ovary cells, inducible expression
• Ham's F-12 with 10% tetracycline-free FBS • 1× penicillin-streptomycin • 1× glutamax • 0.01 mg/ml Blasticidin • 0.40 mg/ml Zeocin • The cell line doubling rate was ˜15 hours. […] Experiments were run at 24 hours post induction. Plating Conditions CHOK1/TRPA1 Cells: • Harvested cells with 0.025% trypsin/EDTA. • Resuspended cells in growth media without selection antibiotics. • Measured cell density and diluted to 2.4×10^5 cells/ml in media containing 1 ug/ml Doxycycline Plate 25 ul/well into 384 well black/clear tissue culture-treated plates. • Incubated overnight at 37° C. Calcium Flux Assay: Day of Assay: Reagents: • Replacement Buffer: Hank's Balanced Salt Solution, 20 mM HEPES along with 0.005% BSA and 2× Probenecid • Dye Loading Buffer: Cal-3 NW Calcium dye was prepared by dissolving the contents of one vial with […] Hank's Balanced Salt Solution containing 20 mM HEPES. • Control compounds for CHOK1/TRPA1 cells: AP-18, stock 10 mM, prepare 3.5× compound dilution in a Compound Buffer (HBSS/20 mM HEPES/0.005% BSA)—final concentration 10 uM. • Preparation of Cinnamaldehyde (agonist addition): FW=132.16 • Specific gravity=1.046 gm/cc • 1.32 gm/1.046 gm/cc=1.26 ml of stock • Add 1.74 ml DMSO=3.3 M stock • Working solution 4.5× (final 100 uM in Compound Buffer: HBSS/20 mM HEPES/0.005% BSA) • Compounds dilutions were prepared from 5 or 10 mM stock (100% DMSO): • Adjustments of volumes and concentrations were made at time of titration to reflect desired final assay concentrations. • Compounds were tested at either 20 μM three folds dilution 11 steps out or 30 μM two folds dilution 11 steps out. • 3 μl of diluted compound were transferred into Weidmann 384-well plate in duplicates side-by-side. • Compound plates were resuspended with 100 ul of HBSS/20 mM HEPES/0.005% BSA buffer (Compound Buffer): • column 1A-H: buffer/DMSO (bk) • column 2A-H: AP-18 (control antagonist for CHOK1 TRPA1 cells) • column 1I-P: ATP (control for CHOK1 teton cells) • column 2 I-P: 2APB (control antagonist for CHOK1/TRPM8 cells). Growth media was removed from the cell plates (20 ul) and 20 ul of the Replacement Buffer was added followed by addition of 25 ul of diluted dye. All three steps were performed using a Plate Washer BioTek 407. The plates were then incubated for 30′ at RT.
After incubation, both the cell and compound plates were brought to the FLIPR and 20 ul of the diluted compounds/antagonist/bk were transferred to the cell plates by the FLIPR. Plates were then incubated for 30′ at room temperature. After 30′ incubation, plates were returned to the FLIPR and 20 ul of 4.5× Cinnamaldehyde was added to the cell plates. During the compound addition as well as agonist addition, fluorescence readings were taken simultaneously from all 384 wells of the cell plate every 1.5 seconds. Five readings were taken to establish a stable baseline, then 20 ul of sample was rapidly (30 ul/sec) and simultaneously added to each well of the cell plate. The fluorescence was continuously monitored before, during and after sample/agonist addition for a total elapsed time of 100 seconds (compound addition) and 120 seconds (agonist addition). Responses (increase in peak fluorescence) in each well following agonist addition was determined. The initial fluorescence reading from each well, prior to ligand stimulation, was used a zero baseline value for the data from that well.
Turning to `O=C(NCc1cccc(-c2ccc(C(F)(F)F)cc2)c1)C(NS(=O)(=O)c1ccc(F)cc1)C1CC1` (centres unmarked) [Example 24, 2-cyclopropyl-2-(4-fluoro-benzenesulfonylamino)-N-(4′-trifluoromethyl-biphenyl-3-ylmethyl)-acetamide], the pIC50 (as a rule, the negative decadic logarithm of the IC50, by convention in mol/L) is 5.99.

`CN(CC(=O)NCc1cc(-c2ccc(C(F)(F)F)cc2)ncn1)S(=O)(=O)c1ccc(Cl)s1` [Example 25, 2-[(5-chloro-thiophene-2-sulfonyl)-methyl-amino]-N-[6-(4-trifluoromethyl-phenyl)-pyrimidin-4-ylmethyl]-acetamide]: the pIC50 was 7.38.

As for `CN(CC(=O)NCc1cc(-c2ccc(C(F)(F)F)cc2)ncn1)S(=O)(=O)c1cccs1` [Example 26, 2-[methyl-(thiophene-2-sulfonyl)-amino]-N-[6-(4-trifluoromethyl-phenyl)-pyrimidin-4-ylmethyl]-acetamide], the pIC50 was 6.47.

As to `CC(C)N(CC(=O)NCc1cc(-c2ccc(C(F)(F)F)cc2)ncn1)S(=O)(=O)c1ccc(F)cc1` [Example 27, 2-[(4-Fluoro-benzenesulfonyl)-isopropyl-amino]-N-[6-(4-trifluoromethyl-phenyl)-pyrimidin-4-ylmethyl]-acetamide], the negative logarithm of the IC50 (pIC50) was 7.28.

In the case of `CCN(CC(=O)NCc1cc(-c2ccc(C(F)(F)F)cc2)ncn1)S(=O)(=O)c1ccc(F)cc1` [Example 28, 2-[Ethyl-(4-fluoro-benzenesulfonyl)-amino]-N-[6-(4-trifluoromethyl-phenyl)-pyrimidin-4-ylmethyl]-acetamide], the negative logarithm of the IC50 (pIC50) was 7.48.

Consider `COCCN(CC(=O)NCc1cc(-c2ccc(C(F)(F)F)cc2)ncn1)S(=O)(=O)c1ccc(F)cc1` [Example 29, 2-[(4-Fluoro-benzenesulfonyl)-(2-methoxy-ethyl)-amino]-N-[6-(4-trifluoromethyl-phenyl)-pyrimidin-4-ylmethyl]-acetamide], for which the pIC50 was 6.33.

For `O=C(CN(CCO)S(=O)(=O)c1ccc(F)cc1)NCc1cc(-c2ccc(C(F)(F)F)cc2)ncn1` [Example 30, 2-[(4-fluoro-benzenesulfonyl)-(2-hydroxy-ethyl)-amino]-N-[6-(4-trifluoromethyl-phenyl)-pyrimidin-4-ylmethyl]acetamide], the negative-log IC50 (pIC50) is 6.66.

For `CC(C)(C)N(CC(=O)NCc1cc(-c2ccc(C(F)(F)F)cc2)ncn1)S(=O)(=O)c1ccc(F)cc1` [Example 31, 2-[tert-Butyl-(4-fluoro-benzenesulfonyl)-amino]-N-[6-(4-trifluoromethyl-phenyl)-pyrimidin-4-ylmethyl]-acetamide], the pIC50 was 6.42.

On to `CC(C)N([C@@H](C)C(=O)NCc1cc(-c2ccc(C(F)(F)F)cc2)ncn1)S(=O)(=O)c1ccc(F)cc1` [Example 32, (S)-2-[(4-Fluoro-benzenesulfonyl)-isopropyl-amino]-N-[6-(4-trifluoromethyl-phenyl)-pyrimidin-4-ylmethyl]-propionamide], for which the negative-log IC50 (pIC50) was 6.72.

For `CC(C)N(CC(=O)NCc1ccc(-c2ccc(C(F)(F)F)cc2)cc1)S(=O)(=O)c1ccc(F)cc1` [Example 33, 2-[(4-Fluoro-benzenesulfonyl)-isopropyl-amino]-N-(4′-trifluoromethyl-biphenyl-4-ylmethyl)-acetamide], the pIC50 is 5.66.

For `CC(C)N(CC(=O)NCc1ccc(-c2cccc(C(F)(F)F)c2)cc1)S(=O)(=O)c1ccc(F)cc1` [Example 34, 2-[(4-Fluoro-benzenesulfonyl)-isopropyl-amino]-N-(3′-trifluoromethyl-biphenyl-4-ylmethyl)-acetamide], the pIC50 was 5.44.

With `CC(C)N(CC(=O)NCc1ccc(F)c(-c2ccc(C(F)(F)F)cc2)c1)S(=O)(=O)c1ccc(F)cc1` [Example 35, 2-[(4-Fluoro-benzenesulfonyl)-isopropyl-amino]-N-(6-fluoro-4′-trifluoromethyl-biphenyl-3-ylmethyl)-acetamide], the pIC50 is 7.27.

As for `CC(C)N(CC(=O)NCc1cc(F)cc(-c2ccc(C(F)(F)F)cc2)c1)S(=O)(=O)c1ccc(F)cc1` [Example 36, 2-[(4-Fluoro-benzenesulfonyl)-isopropyl-amino]-N-(5-fluoro-4′-trifluoromethyl-biphenyl-3-ylmethyl)-acetamide], the negative-log IC50 (pIC50) is 7.92.

`CC(C)N(CC(=O)NCc1cc(-c2ccc(C(F)(F)F)cc2)ccc1F)S(=O)(=O)c1ccc(F)cc1` [Example 37, 2-[(4-Fluoro-benzenesulfonyl)-isopropyl-amino]-N-(4-fluoro-4′-trifluoromethyl-biphenyl-3-ylmethyl)-acetamide]: the pIC50 is 7.85.

`C[C@H](C(=O)NCc1cc(-c2ccc(C(F)(F)F)cc2)ncn1)N(C)S(=O)(=O)c1ccc(F)cc1` [Example 38, (R)-2-[(4-Fluoro-benzenesulfonyl)-methyl-amino]-N-[6-(4-trifluoromethyl-phenyl)-pyrimidin-4-ylmethyl]-propionamide]: the negative-log IC50 (pIC50) was 7.19.

Consider `CC(C)N(CC(=O)NCc1cccc(-c2ccc(C(F)(F)F)cc2)c1)S(=O)(=O)c1ccc(F)cc1` [Example 39, 2-[(4-Fluoro-benzenesulfonyl)-isopropyl-amino]-N-(4′-trifluoromethyl-biphenyl-3-ylmethyl)-acetamide], for which the pIC50 was 7.29.

In the case of `CC(C)N(CC(=O)NCc1cccc(-c2ccc(C(F)(F)F)cn2)c1)S(=O)(=O)c1ccc(F)cc1` [Example 40, 2-[(4-Fluoro-benzenesulfonyl)-isopropyl-amino]-N-[3-(5-trifluoromethyl-pyridin-2-yl)-benzyl]-acetamide], the pIC50 was 7.17.

Take `CN(CC(=O)NCc1cccc(-c2ccc(C(F)(F)F)cn2)c1)S(=O)(=O)c1ccc(F)cc1` [Example 41, 2-[(4-Fluoro-benzenesulfonyl)-methyl-amino]-N-[3-(5-trifluoromethyl-pyridin-2-yl)-benzyl]-acetamide]: the pIC50 was 6.54.

Take `CCN(CC(=O)NCc1cccc(-c2ccc(C(F)(F)F)cn2)c1)S(=O)(=O)c1ccc(F)cc1` [Example 42, 2-[Ethyl-(4-fluoro-benzenesulfonyl)-amino]-N-[3-(5-trifluoromethyl-pyridin-2-yl)-benzyl]-acetamide]: the pIC50 is 7.08.

Regarding `COc1cc(CNC(=O)CN(C)S(=O)(=O)c2ccc(F)cc2)cc(-c2ccc(C(F)(F)F)cc2)c1` [Example 43, 2-[(4-Fluoro-benzenesulfonyl)-methyl-amino]-N-(5-methoxy-4′-trifluoromethyl-biphenyl-3-ylmethyl)-acetamide], the negative-log IC50 (pIC50) is 6.42.

For `CCN(CC(=O)NCc1cc(OC)cc(-c2ccc(C(F)(F)F)cc2)c1)S(=O)(=O)c1ccc(F)cc1` [Example 44, 2-[Ethyl-(4-fluoro-benzenesulfonyl)-amino]-N-(5-methoxy-4′-trifluoromethyl-biphenyl-3-ylmethyl)-acetamide], the pIC50 is 7.06.

Take `COc1cc(CNC(=O)CN(C(C)C)S(=O)(=O)c2ccc(F)cc2)cc(-c2ccc(C(F)(F)F)cc2)c1` [Example 45, 2-[(4-Fluoro-benzenesulfonyl)-isopropyl-amino]-N-(5-methoxy-4′-trifluoromethyl-biphenyl-3-ylmethyl)-acetamide]: the pIC50 is 7.32.

`CCN(CC(=O)NCc1ccc(OC)c(-c2ccc(C(F)(F)F)cc2)c1)S(=O)(=O)c1ccc(F)cc1` [Example 46, 2-[Ethyl-(4-fluoro-benzenesulfonyl)-amino]-N-(6-methoxy-4′-trifluoromethyl-biphenyl-3-ylmethyl)-acetamide]: the pIC50 is 6.89.
